From patent US11306084B2, “Integrin antagonists” (Saint Louis University, priority 2016, dated 2022)

Experiments:
Type in all cases: binding
[1] = target: T1, Recombinant human integrin ανβ8 (Homo sapiens, UniProt P06756+P26012); assay: Solid Phase Receptor Assay (SPRA) for ανβ8 function; conditions: plate-bound human LAP; read-out: αvβ8 SPRA IC50
T1 construct: purchased R&D Systems 4135-AV
Description: F. Solid Phase Receptor Assay (SPRA) for ανβ8 Function
Wells were washed 3 times with 150 μL TBS+ and then 150 μL of blocking buffer (TBS+ with 1% bovine serum albumin, Sigma A7906) was added. The plate was incubated for 1 hr at 37° C. and then washed 3× with TBS+. […] Compounds were diluted to 20 μM and 1 μL was added to each well of the plate according to a standard template with each sample repeated in triplicate. After incubation for two hours at room temperature, the plate was washed 3× with 150 μL of TBS+. To each well, 50 μL of biotinylated anti-αν antibody (R&D Systems, BAF1219) at 1 μg/mL in TBS+/0.1% BSA were added and the plate was covered and incubated for 1 hr at room temperature. After washing the plate 3× with 150 μL. of TBS+ buffer, 50 μL of streptavidin-conjugated horseradish peroxidase (R&D Systems, DY998) diluted in TBS+ blocking buffer were added to the wells and the plate incubated for 20 min at room temperature. The plate was washed 3× with TBS+ followed by 50 μL of TMB substrate (Sigma T4444) added to each well in the dark and the plate incubated for 10 min at room temperature. 25 μL of 1.0 M phosphoric acid was added as a stop solution and the plates were read at 450 nm using a Spectramax plate reader.

[2] = target: T2, Recombinant human integrin ανβ1 (Homo sapiens, UniProt P05556+P06756); assay: Solid Phase Receptor Assay (SPRA) for ανβ1 function; conditions: plate-bound human fibronectin; read-out: αvβ1 SPRA IC50
T2 construct: purchased R&D Systems 6579-AV
T2 sequence (P06756 31-992 limits assumed): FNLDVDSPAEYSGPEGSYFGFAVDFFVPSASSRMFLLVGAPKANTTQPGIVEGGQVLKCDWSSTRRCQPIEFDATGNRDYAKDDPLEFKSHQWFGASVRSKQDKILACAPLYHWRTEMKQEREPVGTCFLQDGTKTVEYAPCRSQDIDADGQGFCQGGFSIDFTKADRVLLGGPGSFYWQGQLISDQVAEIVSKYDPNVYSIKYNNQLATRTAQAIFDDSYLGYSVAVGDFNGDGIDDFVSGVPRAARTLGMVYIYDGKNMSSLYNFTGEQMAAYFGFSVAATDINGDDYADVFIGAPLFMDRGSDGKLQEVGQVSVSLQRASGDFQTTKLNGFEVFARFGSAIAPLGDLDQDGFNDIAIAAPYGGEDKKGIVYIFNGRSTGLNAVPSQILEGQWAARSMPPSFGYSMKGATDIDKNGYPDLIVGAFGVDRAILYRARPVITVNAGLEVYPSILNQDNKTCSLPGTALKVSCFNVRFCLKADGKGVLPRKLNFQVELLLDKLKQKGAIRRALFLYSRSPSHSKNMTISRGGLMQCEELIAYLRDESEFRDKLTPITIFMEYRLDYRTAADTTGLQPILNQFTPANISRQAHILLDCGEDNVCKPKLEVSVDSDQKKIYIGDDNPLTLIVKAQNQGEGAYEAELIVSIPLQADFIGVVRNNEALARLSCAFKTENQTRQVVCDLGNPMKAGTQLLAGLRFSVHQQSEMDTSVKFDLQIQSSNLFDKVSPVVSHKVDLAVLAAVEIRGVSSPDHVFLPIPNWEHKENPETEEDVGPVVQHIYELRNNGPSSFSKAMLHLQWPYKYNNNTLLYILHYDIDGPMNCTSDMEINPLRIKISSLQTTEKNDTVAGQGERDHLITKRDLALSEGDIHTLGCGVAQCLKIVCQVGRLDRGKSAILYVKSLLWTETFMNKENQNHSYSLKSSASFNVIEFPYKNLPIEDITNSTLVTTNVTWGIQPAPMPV
T2 sequence (P05556 21-728 limits assumed): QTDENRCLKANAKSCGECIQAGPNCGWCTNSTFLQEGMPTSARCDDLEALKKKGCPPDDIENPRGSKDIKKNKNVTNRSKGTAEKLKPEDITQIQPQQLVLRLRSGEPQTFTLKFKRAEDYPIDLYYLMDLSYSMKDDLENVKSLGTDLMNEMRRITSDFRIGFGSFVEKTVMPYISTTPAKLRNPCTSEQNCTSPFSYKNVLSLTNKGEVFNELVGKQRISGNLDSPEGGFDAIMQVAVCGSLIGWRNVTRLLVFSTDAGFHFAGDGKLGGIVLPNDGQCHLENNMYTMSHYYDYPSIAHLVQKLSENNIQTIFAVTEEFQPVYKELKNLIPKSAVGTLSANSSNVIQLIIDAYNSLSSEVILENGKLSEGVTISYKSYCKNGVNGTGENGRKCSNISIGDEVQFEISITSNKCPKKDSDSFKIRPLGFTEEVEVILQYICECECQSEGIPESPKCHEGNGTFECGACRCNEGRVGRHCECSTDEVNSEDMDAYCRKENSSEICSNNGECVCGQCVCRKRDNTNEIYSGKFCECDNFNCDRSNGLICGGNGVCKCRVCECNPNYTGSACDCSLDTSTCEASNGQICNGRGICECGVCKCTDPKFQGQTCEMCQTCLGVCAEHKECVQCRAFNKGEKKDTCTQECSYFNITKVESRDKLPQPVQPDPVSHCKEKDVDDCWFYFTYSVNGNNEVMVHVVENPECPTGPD
Description: B. Solid Phase Receptor Assay (SPRA) for ανβ1 Function
(§1) Wells were washed 3 times with 150 μL TBS+ and then 150 μL of blocking buffer (TBS+ with 1% bovine serum albumin, Sigma A7906) was added. The plate was incubated for 1 hr at 37° C. and then washed 3× with TBS+ buffer. […] Compounds were diluted to 20 μM and 1 μL was added to each well of the plate according to a standard template with each sample repeated in triplicate. After incubation for two hours at room temperature, the plate was washed 3 with 150 μL of TBS+ buffer. To each well, 50 μL of biotinylated anti-αν antibody (R&D Systems, BAF1219) at 1 μg/mL in TBS+/0.1% BSA were added and the plate covered and incubated for 1 hr at room temperature. After washing the plate 3× with 150 μL of TBS+ buffer, 50 μL of streptavidin-conjugated horseradish peroxidase (R&D Systems, DY998) diluted in TBS+ blocking buffer were added to the wells and the plate incubated for 20 min at room temperature. The plate was washed 3× with TBS+ buffer followed by 50 μL of TMB substrate (Sigma, T4444) added to each well in the dark and the plate incubated for 25 min at room temperature. 25 μL of 1.0 M phosphoric acid was added as a stop solution and the plates were read at 450 nm using a Spectramax plate reader.

[3] = target: T3, Recombinant human integrin ανβ6 (Homo sapiens, UniProt P06756+P18564); assay: Solid Phase Receptor Assay (SPRA) for ανβ6 function; conditions: plate-bound human LAP; read-out: αvβ6 SPRA IC50
T3 construct: purchased R&D Systems 3817-AV
T3 sequence (P06756 31-992 limits assumed): as the sequence (P06756 31-992 limits assumed) above
T3 sequence (P18564 22-707 limits assumed): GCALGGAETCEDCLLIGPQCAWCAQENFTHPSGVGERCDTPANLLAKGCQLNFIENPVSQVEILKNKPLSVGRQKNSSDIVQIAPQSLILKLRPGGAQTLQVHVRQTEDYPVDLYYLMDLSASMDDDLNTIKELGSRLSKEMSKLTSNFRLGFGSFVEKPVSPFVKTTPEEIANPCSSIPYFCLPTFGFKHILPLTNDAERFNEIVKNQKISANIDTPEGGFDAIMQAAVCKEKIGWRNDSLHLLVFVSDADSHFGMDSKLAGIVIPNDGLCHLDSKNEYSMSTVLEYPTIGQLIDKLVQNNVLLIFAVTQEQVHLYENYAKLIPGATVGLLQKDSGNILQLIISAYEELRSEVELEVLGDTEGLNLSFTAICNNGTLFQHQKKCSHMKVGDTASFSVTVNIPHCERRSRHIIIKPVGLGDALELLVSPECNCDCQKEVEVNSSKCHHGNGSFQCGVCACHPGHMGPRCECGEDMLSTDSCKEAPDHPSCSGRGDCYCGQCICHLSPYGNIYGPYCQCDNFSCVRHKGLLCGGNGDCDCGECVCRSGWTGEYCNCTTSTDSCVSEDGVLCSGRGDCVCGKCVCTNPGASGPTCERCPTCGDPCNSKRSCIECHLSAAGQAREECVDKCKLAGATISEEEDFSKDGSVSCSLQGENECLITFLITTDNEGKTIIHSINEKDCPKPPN
Description: E. Solid Phase Receptor Assay (SPRA) for ανβ6 Function
Wells were washed 3 times with 150 μL TBS+, and then 150 μL of blocking buffer (TBS+ with 1% bovine serum albumin, Sigma A7906) was added. The plate was incubated for 1 hr at 37° C., and then washed 3× with TBS+ buffer. […] Compounds were diluted to 20 μM and then 1 μL was added to each well of the plate according to a standard template with each sample repeated in triplicate. After incubation for two hours at room temperature, the plate was washed 3× with 150 μL of TBS+ buffer. To each well, 50 μL of biotinylated anti-αν antibody (R&D Systems, BAF1219) at 0.5 μg/mL in TBS+/0.1% BSA were added and the plate was covered and incubated for 1 hr at room temperature. After washing the plate 3× with 150 μL of TBS+ buffer, 50 μL of streptavidin-conjugated horseradish peroxidase (R&D Systems, DY998) diluted in TBS+ blocking buffer were added to the wells and the plate incubated for 20 min at room temperature. The plate was washed 3× with TBS+ buffer followed by 50 μL of TMB substrate (Sigma T4444) added to each well in the dark and the plate incubated for 10 min at room temperature. 25 μL of 1.0 M phosphoric acid was added as a stop solution and the plates were read at 450 nm using a Spectramax plate reader.

[4] = target: T4, Recombinant human integrin α5β1 (Homo sapiens, UniProt P05556+P08648); assay: Solid Phase Receptor Assay (SPRA) for α5β1 function; conditions: plate-bound human fibronectin
T4 construct: purchased R&D Systems 3230-A5
T4 sequence (P08648 42-995 limits assumed): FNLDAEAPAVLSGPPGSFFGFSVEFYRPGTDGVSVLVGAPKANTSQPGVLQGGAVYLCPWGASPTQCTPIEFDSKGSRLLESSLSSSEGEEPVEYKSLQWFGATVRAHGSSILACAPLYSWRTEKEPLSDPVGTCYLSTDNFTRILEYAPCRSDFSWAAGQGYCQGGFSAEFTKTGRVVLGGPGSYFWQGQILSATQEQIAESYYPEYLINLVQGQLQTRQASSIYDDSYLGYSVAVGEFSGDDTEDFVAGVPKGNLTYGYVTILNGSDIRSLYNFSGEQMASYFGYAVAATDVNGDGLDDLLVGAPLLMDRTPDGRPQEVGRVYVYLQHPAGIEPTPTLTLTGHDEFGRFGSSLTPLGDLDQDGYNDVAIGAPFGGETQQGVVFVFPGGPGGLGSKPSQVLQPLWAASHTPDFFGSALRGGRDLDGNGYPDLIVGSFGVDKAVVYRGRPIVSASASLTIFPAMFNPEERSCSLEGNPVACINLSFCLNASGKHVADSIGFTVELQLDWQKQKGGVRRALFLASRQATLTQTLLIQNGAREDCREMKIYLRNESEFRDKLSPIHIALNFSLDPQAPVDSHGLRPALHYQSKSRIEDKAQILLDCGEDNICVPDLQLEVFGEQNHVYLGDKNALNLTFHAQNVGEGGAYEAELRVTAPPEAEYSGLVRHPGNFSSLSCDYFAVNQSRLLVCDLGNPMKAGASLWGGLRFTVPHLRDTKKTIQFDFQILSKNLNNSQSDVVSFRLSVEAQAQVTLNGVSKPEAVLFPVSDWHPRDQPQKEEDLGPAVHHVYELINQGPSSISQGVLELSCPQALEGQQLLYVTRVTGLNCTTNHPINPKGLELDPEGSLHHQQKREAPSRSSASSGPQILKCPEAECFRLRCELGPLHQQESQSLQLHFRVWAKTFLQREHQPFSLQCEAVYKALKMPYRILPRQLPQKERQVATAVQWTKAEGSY
T4 sequence (P05556 21-728 limits assumed): as the sequence (P05556 21-728 limits assumed) above
Description: A. Solid Phase Receptor Assay (SPRA) for α5β1 Function
as §1, with “μM and then 1 μL” for “μM and 1 μL”, “was washed 3× with 150” for “was washed 3 with 150”, “of biotinylated anti-α5 antibody (R&D” for “of biotinylated anti-αν antibody (R&D”, “(R&D Systems, BAF1864) at 0.5” for “(R&D Systems, BAF1219) at 1”, “BAF1864) at 0.5 μg/mL in” for “BAF1219) at 1 μg/mL in”, “μL of room temperature TMB substrate” for “μL of TMB substrate”

T1 sequence (P06756 31-992 limits assumed): as the sequence (P06756 31-992 limits assumed) above
T1 sequence (P26012 43-684 limits assumed): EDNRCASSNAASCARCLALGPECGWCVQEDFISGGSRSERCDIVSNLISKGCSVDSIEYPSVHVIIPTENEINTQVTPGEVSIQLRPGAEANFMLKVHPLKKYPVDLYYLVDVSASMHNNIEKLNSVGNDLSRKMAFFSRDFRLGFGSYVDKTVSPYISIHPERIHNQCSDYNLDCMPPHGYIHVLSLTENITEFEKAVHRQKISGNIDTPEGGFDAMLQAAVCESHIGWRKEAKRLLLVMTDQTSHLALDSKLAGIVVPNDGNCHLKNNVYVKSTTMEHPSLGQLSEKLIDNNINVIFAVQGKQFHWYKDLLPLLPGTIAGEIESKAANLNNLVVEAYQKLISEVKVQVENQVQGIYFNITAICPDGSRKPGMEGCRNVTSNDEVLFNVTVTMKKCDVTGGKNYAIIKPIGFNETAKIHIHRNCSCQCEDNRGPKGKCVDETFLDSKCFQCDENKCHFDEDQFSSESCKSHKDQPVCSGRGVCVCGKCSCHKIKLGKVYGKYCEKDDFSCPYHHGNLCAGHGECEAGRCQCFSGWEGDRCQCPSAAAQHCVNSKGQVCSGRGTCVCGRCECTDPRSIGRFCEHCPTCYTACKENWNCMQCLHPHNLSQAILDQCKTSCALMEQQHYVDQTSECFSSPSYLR

Compound	IC50 [1] [µM]	IC50 [2] [µM]	IC50 [3] [µM]	IC50 [4] [µM]
Cn1nc(CC(CC(=O)O)c2ccc3c(c2)OCCO3)cc1OCCc1ccc2c(n1)NCCC2 (stereo not shown) [Example 1, 3-(2,3-dihydrobenzo[b][1,4]dioxin-6-yl)-4-(1-methyl-5-(2-(5,6,7,8-tetrahydro-1,8-naphthyridin-2-yl)ethoxy)-1H-pyrazol-3-yl)butanoic Acid]	0.052	0.006	0.035	0.229
Cn1nc(CC(CC(=O)O)c2cc(F)cc(Cl)c2)cc1OCCc1ccc2c(n1)NCCC2 (stereo not shown) [Example 2, 3-(3-chloro-5-fluorophenyl)-4-(1-methyl-5-(2-(5,6,7,8-tetrahydro-1,8-naphthyridin-2-yl)ethoxy)-1H-pyrazol-3-yl)butanoic Acid]	0.032	0.005	0.043	0.192
COc1ccc(C(CC(=O)O)Cc2cc(OCCc3ccc4c(n3)NCCC4)n(C)n2)cc1F (stereo not shown) [Example 3, 3-(3-fluoro-4-methoxyphenyl)-4-(1-methyl-5-(2-(5,6,7,8-tetrahydro-1,8-naphthyridin-2-yl)-ethoxy)-1H-pyrazol-3-yl)butanoic Acid]	0.114	0.005	0.099	0.114
Cn1nc(CC(CC(=O)O)c2ccc(Br)c(F)c2)cc1OCCc1ccc2c(n1)NCCC2 (stereo not shown) [Example 4, 3-(4-bromo-3-fluorophenyl)-4-(1-methyl-5-(2-(5,6,7,8-tetrahydro-1,8-naphthyridin-2-yl)ethoxy)-1H-pyrazol-3-yl)butanoic Acid]	0.079	0.005	0.189	0.343
Cn1nc(CC(CC(=O)O)c2ccc(F)c(Br)c2)cc1OCCc1ccc2c(n1)NCCC2 (stereo not shown) [Example 5, 3-(3-bromo-4-fluorophenyl)-4-(1-methyl-5-(2-(5,6,7,8-tetrahydro-1,8-naphthyridin-2-yl)ethoxy)-1H-pyrazol-3-yl)butanoic Acid]	0.016	0.011	0.073	0.14
Cn1nc(CC(CC(=O)O)c2cccc(Br)c2)cc1OCCc1ccc2c(n1)NCCC2 (stereo not shown) [Example 6, 3-(3-bromophenyl)-4-(1-methyl-5-(2-(5,6,7,8-tetrahydro-1,8-naphthyridin-2-yl)ethoxy)-1H-pyrazol-3-yl)butanoic Acid]	0.019	0.01	0.008	0.158
Cn1nc(CC(CC(=O)O)c2ccc(F)c(C#N)c2)cc1OCCc1ccc2c(n1)NCCC2 (stereo not shown) [Example 7, 3-(3-cyano-4-fluorophenyl)-4-(1-methyl-5-(2-(5,6,7,8-tetrahydro-1,8-naphthyridin-2-yl)ethoxy)-1H-pyrazol-3-yl)butanoic Acid]	0.023	0.007	0.05	0.224
Cn1nc(CC(CC(=O)O)c2ccc(C#N)c(F)c2)cc1OCCc1ccc2c(n1)NCCC2 (stereo not shown) [Example 8]	0.048	0.012	0.052	0.166
Cn1nc(CC(CC(=O)O)c2cccc(C#N)c2)cc1OCCc1ccc2c(n1)NCCC2 (stereo not shown) [Example 9, 3-(3-cyanophenyl)-4-(1-methyl-5-(2-(5,6,7,8-tetrahydro-1,8-naphthyridin-2-yl)ethoxy)-1H-pyrazol-3-yl)butanoic Acid]	0.062	0.009	0.012	0.11
Cn1nc(CC(CC(=O)O)c2cc(Br)cc(C(F)(F)F)c2)cc1OCCc1ccc2c(n1)NCCC2 (stereo not shown) [Example 10, 3-(3-bromo-5-(trifluoromethyl)phenyl)-4-(1-methyl-5-(2-(5,6,7,8-tetrahydro-1,8-naphthyridin-2-yl)ethoxy)-1H-pyrazol-3-yl)butanoic Acid]	0.012	0.017	0.025	0.12
